Square brackets hold non-standard residues; d marks the D form. Peptide text beside a SMILES is read from it. Tyr(3-NO2) = N[C@@H](Cc1ccc(O)c([N+](=O)[O-])c1)C(=O)O
Experiments:
Trypsin [1] = biological target: T1, Trypsin (Sus scrofa, UniProt P00761); assay: Trypsin cleavage of C-terminal quantification tag -SA-nitroTyr-G from peptides, LC-MS with UV detection at 350 nm; assay type: biochemical; settings: after reduction and alkylation, trypsin enzyme/substrate 1:50 over night at RT
T1 construct: purchased Promega Corporation V511
Protocol: 23 peptides carrying the C-terminal quantification-tag-SA-nitroTyr-G-OH (SEQ ID NO:2) were synthesized by Fmoc-based solid phase peptide synthesis and purified by HPLC. Each peptide was subjected to the following trypsin cleavage protocol:
(§1) Trypsin Activation: Trypsin (20 μg, sequencing grade modified trypsin, Promega Corporation, Madison, Wis., USA, catalogue no. V511, specific activity 16.965 u/mg) was dissolved in Trypsin resuspension buffer (200 μL, Promega, catalogue no. V542A, ingredient 50 mM acetic acid) and incubated for 15 min at 37° C.
(§2) Reduction and alkylation: The peptide (approx. 0.05 mg) was dissolved in 1 M urea and 100 mM fresh ammonium hydrogen carbonate (300 μL). TCEP (Tris(2-carboxyethyl) phosphine hydrochloride, 0.2 M, 7.5 μL, final concentration 5 mM) was added and the solution incubated at 37° C. for 1 h. After addition of iodoacetamide (0.5 M, 6.0 μL, final concentration 10 mM) the solution was incubated at RT in the dark for another 30 min. Digestion: The sample was digested with activated Trypsin solution (10 μL per well, 1.0 μg, resulting enzyme/substrate ratio 1:50) over night at RT. To stop the digestion, HCl (2 M, 8 μL final concentration 50 mM) and TFA (3.2 μL, final concentration 1%, pH<2) were added. Finally, the sample was analyzed by LC-MS at 350 nm.

Trypsin [2] = biological target: T1, Trypsin; assay: Trypsin cleavage of N-terminal quantification tag Ac-nitroTyr-SGK- from peptides, LC-MS with UV detection at 350 nm; assay type: biochemical; settings: for cleavage efficiency in words: trypsin; for Kusebauch 24 h, RT: Percent Cleavage of Tag [by UV350 - Peptide-Tag vs. Tag]: trypsin protocol of example 9, 24 h
Protocol: as §1, §2
38 peptides carrying the N-terminal quantification-tag Ac-nitroTyr-SGK-(SEQ ID NO:32) were synthesized by SPOT synthesis (Table 3). The peptide sequences are based on two different amino acid sequences, which in each case contain 19 different amino acids N-terminally attached to lysine (the 20 naturally occurring amino acids except cysteine).
All peptides were subjected to the same trypsin cleavage protocol as described in example 9. It is apparent that the quantification tag is efficiently cleaved (>99%) in nearly all cases.

T1 sequence (P00761 9-231): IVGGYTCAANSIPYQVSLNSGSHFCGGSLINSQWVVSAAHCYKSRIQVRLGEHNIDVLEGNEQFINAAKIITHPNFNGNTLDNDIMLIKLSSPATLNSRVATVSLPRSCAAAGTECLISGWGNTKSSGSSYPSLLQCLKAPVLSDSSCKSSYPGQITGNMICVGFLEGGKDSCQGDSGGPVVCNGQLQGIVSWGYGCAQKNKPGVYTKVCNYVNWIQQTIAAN

| Percent Cleavage of Tag [by UV at 350 nm] (Trypsin [1]) [%] | cleavage efficiency in words (Trypsin [2]) | Kusebauch 24 h, RT: Percent Cleavage of Tag [by UV350 - Peptide-Tag vs. Tag] (Trypsin [2]) [%] | Structure (SMILES) |
| --- | --- | --- | --- |
| 95.4 |  |  | CC(C)C[C@H](N)C(=O)N1CCC[C@H]1C(=O)N[C@@H](CC(N)=O)C(=O)NCC(=O)N[C@H](C(=O)N[C@@H](Cc1ccccc1)C(=O)N[C@H](C(=O)N1CCC[C@H]1C(=O)N[C@@H](CC(=O)O)C(=O)N[C@@H](Cc1ccccc1)C(=O)N[C@@H](CCC(N)=O)C(=O)N[C@@H](CCC(=O)O)C(=O)N[C@@H](Cc1ccccc1)C(=O)N[C@H](C(=O)N[C@@H](CC(N)=O)C(=O)N[C@@H](CCCCN)C(=O)N[C@@H](CO)C(=O)N[C@@H](C)C(=O)N[C@@H](Cc1ccc(O)c([N+](=O)[O-])c1)C(=O)NCC(=O)O)C(C)C)[C@@H](C)O)C(C)C [LPNGVFTPDFQEFVN-K-SA-nitroTyr-G] (H-LPNGVFTPDFQEFVNKSA[Tyr(3-NO2)]G-OH) |
| 100 |  |  | CC[C@H](C)[C@H](NC(=O)[C@@H](NC(=O)[C@@H](N)CO)C(C)C)C(=O)N[C@@H](CC(=O)O)C(=O)N1CCC[C@H]1C(=O)N[C@H](C(=O)N1CCC[C@H]1C(=O)N[C@@H](C)C(=O)N1CCC[C@H]1C(=O)N[C@H](C(=O)NCC(=O)N[C@@H](CC(=O)O)C(=O)N[C@@H](CO)C(=O)N[C@@H](Cc1c[nH]cn1)C(=O)N[C@H](C(=O)N[C@@H](CC(=O)O)C(=O)NCC(=O)N[C@@H](C)C(=O)N[C@@H](C)C(=O)N[C@@H](CCCCN)C(=O)N[C@@H](CO)C(=O)N[C@@H](C)C(=O)N[C@@H](Cc1ccc(O)c([N+](=O)[O-])c1)C(=O)NCC(=O)O)C(C)C)C(C)C)C(C)C [Peptide 2] (H-SVIDPVPAPVGDSHVDGAAKSA[Tyr(3-NO2)]G-OH) |
| 100 | not efficiently cleaved | 60.2 | CC[C@H](C)[C@H](NC(=O)[C@H](Cc1ccccc1)NC(=O)[C@H](Cc1ccc(O)cc1)NC(=O)[C@H](Cc1c[nH]cn1)NC(=O)[C@@H](NC(=O)[C@H](CC(=O)O)NC(=O)[C@H](CCCCN)NC(=O)CNC(=O)[C@H](CO)NC(=O)[C@H](Cc1ccc(O)c([N+](=O)[O-])c1)NC(C)=O)[C@@H](C)O)C(=O)N[C@@H](CC(=O)O)C(=O)N[C@@H](CC(C)C)C(=O)N[C@@H](CC(N)=O)C(=O)N[C@@H](CCCCN)C(=O)O [Peptide 3, Ac-nitroTyr-SGKDTHYFIDLN-K-OH] (Ac-[Tyr(3-NO2)]SGKDTHYFIDLNK-OH) |
| 100 |  | 100.0 | CC[C@H](C)[C@H](NC(=O)[C@H](Cc1ccccc1)NC(=O)[C@H](Cc1ccc(O)cc1)NC(=O)[C@H](Cc1c[nH]cn1)NC(=O)[C@@H](NC(=O)[C@H](CCC(=O)O)NC(=O)[C@H](CCCCN)NC(=O)CNC(=O)[C@H](CO)NC(=O)[C@H](Cc1ccc(O)c([N+](=O)[O-])c1)NC(C)=O)[C@@H](C)O)C(=O)N[C@@H](CC(=O)O)C(=O)N[C@@H](CC(C)C)C(=O)N[C@@H](CC(N)=O)C(=O)N[C@@H](CCCCN)C(=O)O [Peptide 4, Ac-nitroTyr-SGKETHYFIDLN-K-OH] (Ac-[Tyr(3-NO2)]SGKETHYFIDLNK-OH) |
| 100 |  | 99.0 | CC[C@H](C)[C@H](NC(=O)[C@H](Cc1ccccc1)NC(=O)[C@H](Cc1ccc(O)cc1)NC(=O)[C@H](Cc1c[nH]cn1)NC(=O)[C@@H](NC(=O)[C@H](Cc1ccccc1)NC(=O)[C@H](CCCCN)NC(=O)CNC(=O)[C@H](CO)NC(=O)[C@H](Cc1ccc(O)c([N+](=O)[O-])c1)NC(C)=O)[C@@H](C)O)C(=O)N[C@@H](CC(=O)O)C(=O)N[C@@H](CC(C)C)C(=O)N[C@@H](CC(N)=O)C(=O)N[C@@H](CCCCN)C(=O)O [Peptide 5, Ac-nitroTyr-SGKFTHYFIDLN-K-OH] (Ac-[Tyr(3-NO2)]SGKFTHYFIDLNK-OH) |
| 100 |  | 100.0 | CC[C@H](C)[C@H](NC(=O)[C@H](Cc1ccccc1)NC(=O)[C@H](Cc1ccc(O)cc1)NC(=O)[C@H](Cc1c[nH]cn1)NC(=O)[C@@H](NC(=O)CNC(=O)[C@H](CCCCN)NC(=O)CNC(=O)[C@H](CO)NC(=O)[C@H](Cc1ccc(O)c([N+](=O)[O-])c1)NC(C)=O)[C@@H](C)O)C(=O)N[C@@H](CC(=O)O)C(=O)N[C@@H](CC(C)C)C(=O)N[C@@H](CC(N)=O)C(=O)N[C@@H](CCCCN)C(=O)O [Peptide 6, Ac-nitroTyr-SGKGTHYFIDLN-K-OH] (Ac-[Tyr(3-NO2)]SGKGTHYFIDLNK-OH) |
| 100 |  | 100.0 | CC[C@H](C)[C@H](NC(=O)[C@H](Cc1ccccc1)NC(=O)[C@H](Cc1ccc(O)cc1)NC(=O)[C@H](Cc1c[nH]cn1)NC(=O)[C@@H](NC(=O)[C@@H](NC(=O)[C@H](CCCCN)NC(=O)CNC(=O)[C@H](CO)NC(=O)[C@H](Cc1ccc(O)c([N+](=O)[O-])c1)NC(C)=O)[C@@H](C)CC)[C@@H](C)O)C(=O)N[C@@H](CC(=O)O)C(=O)N[C@@H](CC(C)C)C(=O)N[C@@H](CC(N)=O)C(=O)N[C@@H](CCCCN)C(=O)O [Peptide 8, Ac-nitroTyr-SGKITHYFIDLN-K-OH] (Ac-[Tyr(3-NO2)]SGKITHYFIDLNK-OH) |
| 99.2 | good cleavage efficiencies | 100.0 | CC[C@H](C)[C@H](NC(=O)[C@H](Cc1ccccc1)NC(=O)[C@H](Cc1ccc(O)cc1)NC(=O)[C@H](Cc1c[nH]cn1)NC(=O)[C@@H](NC(=O)[C@H](CCCCN)NC(=O)[C@H](CCCCN)NC(=O)CNC(=O)[C@H](CO)NC(=O)[C@H](Cc1ccc(O)c([N+](=O)[O-])c1)NC(C)=O)[C@@H](C)O)C(=O)N[C@@H](CC(=O)O)C(=O)N[C@@H](CC(C)C)C(=O)N[C@@H](CC(N)=O)C(=O)N[C@@H](CCCCN)C(=O)O [Peptide 9, Ac-nitroTyr-SGKKTHYFIDLN-K-OH] (Ac-[Tyr(3-NO2)]SGKKTHYFIDLNK-OH) |
| 100 |  |  | CC[C@H](C)[C@H](NC(=O)[C@H](CC(C)C)NC(=O)[C@@H](N)CCC(=O)O)C(=O)N[C@@H](Cc1ccccc1)C(=O)N[C@@H](CCC(N)=O)C(=O)N[C@@H](CCC(=O)O)C(=O)N[C@H](C(=O)N[C@@H](C)C(=O)N[C@@H](CCCNC(=N)N)C(=O)N[C@@H](CO)C(=O)N[C@@H](C)C(=O)N[C@@H](Cc1ccc(O)c([N+](=O)[O-])c1)C(=O)NCC(=O)O)[C@@H](C)O [Peptide 22] (H-ELIFQETARSA[Tyr(3-NO2)]G-OH) |
|  |  | 100.0 | CC(=O)N[C@@H](Cc1ccc(O)c([N+](=O)[O-])c1)C(=O)N[C@@H](CO)C(=O)NCC(=O)N[C@@H](CCCCN)C(=O)N[C@@H](Cc1c[nH]c2ccccc12)C(=O)N[C@H](C(=O)N[C@@H](C)C(=O)N[C@@H](CC(C)C)C(=O)N[C@@H](CO)C(=O)N[C@@H](CC(C)C)C(=O)N[C@@H](CC(=O)O)C(=O)N[C@@H](CC(=O)O)C(=O)N[C@H](C(=O)N[C@@H](CCCCN)C(=O)O)C(C)C)C(C)C [Peptide 39, Ac-nitroTyr-SGKWVALSLDDV-K-OH] (Ac-[Tyr(3-NO2)]SGKWVALSLDDVK-OH) |
|  |  | 99.1 | CC(=O)N[C@@H](Cc1ccc(O)c([N+](=O)[O-])c1)C(=O)N[C@@H](CO)C(=O)NCC(=O)N[C@@H](CCCCN)C(=O)N[C@@H](Cc1ccc(O)cc1)C(=O)N[C@H](C(=O)N[C@@H](C)C(=O)N[C@@H](CC(C)C)C(=O)N[C@@H](CO)C(=O)N[C@@H](CC(C)C)C(=O)N[C@@H](CC(=O)O)C(=O)N[C@@H](CC(=O)O)C(=O)N[C@H](C(=O)N[C@@H](CCCCN)C(=O)O)C(C)C)C(C)C [Peptide 40, Ac-nitroTyr-SGKYVALSLDDV-K-OH] (Ac-[Tyr(3-NO2)]SGKYVALSLDDVK-OH) |

— patent publication US20160223562A1, “Method for Determining the Concentration of a Peptide” (JPT Peptide Technologies GmbH, priority 2010, published 2016)
